Measurements from ChEMBL document CHEMBL1150472, “Synthesis and immunoregulating activity of vitamin D analogues bearing pregnane side chains” (Bioorg Med Chem Lett, 1992).

Test system: Rattus norvegicus
Assay: Compound was tested in ratsdeficient in vitamin D at a dose of 125 ug/kg i.v.; NE denotes no effect was observed on bone calcium mobilization (BCM) and intestinal calcium absorption (ICA)
Assay type: functional, organism-based

C=C1/C(=C\C=C2/CCC[C@@]3(C)C2CC[C@@H]3C(C)=O)CC(O)C[C@@H]1O (stereo partly specified)
Activity: No effect
